Series [1] in a line: Microsomal metabolic stability assay. The series is classed as in vitro ADME, human. The note with it: for microsomal CLint at 1 µM / half-life at 1 µM: human, liver microsomes, pH 7.4, human liver microsomes 0.5 mg/mL; for microsomal CLint at 1 µM: read-out: Human LM Clint; for half-life at 1 µM: read-out: Human LM T½. The procedure:
Microsomal Metabolic Stability Assay
Microsomes were pre-incubated with test compound or control compounds for 5 min at 37° C. in 100 mM potassium phosphate buffer, pH 7.4, 1.0 mM EDTA. The reaction was initiated by addition of 15 μL of the NADPH regenerating system to 30 μL of each incubation mixture per time point. The final incubation condition was composed of 0.5 mg/mL microsomal protein, 1 μM test article/positive control, 2 mM NADPH. The 0-minute samples were prepared by addition of a 30 μL aliquot of each incubation mixture to 135 μL quench reagent to precipitate proteins. And then a 15 μL aliquot of the NADPH regenerating system was added. At 5, 15, 30 and 45 minutes, the reaction will be stopped by the addition of cold acetonitrile solution containing internal standard. The samples taken at all time points were centrifuged at 5000×g for 15 minutes. 50 μL of supernatant are taken into 96-well assay plates pre-added with 50 μL ultrapure water, and then analyzed by LC/MS/MS.
Concentrations of test articles, control compounds in the samples were determined by using LC/MS/MS method. Plotting of the chromatograms and peak area integrations are carried out by Analyst (AB Sciex).
In the determination of the in vitro elimination constant (ke) of the control compounds, the analyte/internal standard peak area ratios will be converted to percentage remaining (% Remaining) with the following equation:
The CLint of microsomes was calculated using the formula: CLint (mic)=0.693/T1/2/mg microsome protein per mL. The slope was measured by the natural logarithm of the percentage of the residual compound and time, T1/2 was calculated according to the following formula.
For orientation: Microsomes from liver hold many membrane-bound enzymes, among them those of drug oxidation.

The target of series [2] is T1, JAK1-JH2 domain (Homo sapiens, UniProt P23458).
T1 construct: JAK1-JH2 domain or TYK2-JH2 domain enzyme
T1 sequence (P23458 583-855 limits assumed): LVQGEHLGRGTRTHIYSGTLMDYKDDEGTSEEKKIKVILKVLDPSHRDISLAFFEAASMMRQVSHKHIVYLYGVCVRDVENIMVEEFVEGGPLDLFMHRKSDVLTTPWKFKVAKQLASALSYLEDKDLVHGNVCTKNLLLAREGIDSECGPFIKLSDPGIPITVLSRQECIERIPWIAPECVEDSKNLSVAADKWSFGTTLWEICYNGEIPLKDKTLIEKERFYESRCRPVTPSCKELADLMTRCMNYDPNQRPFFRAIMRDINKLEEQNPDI
As to the kind of experiment: Binding activity test for JAK1 JH2 domain (Tb-antibody/tracer FRET). The note with it: read-out: JAK1 JH2 Binding IC50. The procedure:
Binding Activity test for JH2 domain of JAK and TYK2
75 nL DMSO for high control and low control.
For low control, add 5 μL/well assay buffer. […] After enzyme system prepared, add 5 μL of Tb-antibody solution into each wells of assay plate. […] After Tb-antibody added, also add 5 μL of tracer into the assay plate. […] Incubate for 60 mins at 25° C. firstly and then continue to incubate the plate at 4° C. overnight. Read by envision in FRET mode. The Luminescence value was recorded by a multi-label reader Envision (PerkinElmer). Inhibition Rate was calculated relative to vehicle (DMSO) treated control wells using following formula:
wherein • RLU_compound=the relative light unit of cells treated with test compounds • RLU_low control=the relative light unit of medium with DMSO only • RLU_high control=the relative light unit of cells treated with DMSO only

Series [3] deals with T2, TYK2-JH2 domain (Homo sapiens, UniProt P29597).
T2 construct: JAK1-JH2 domain or TYK2-JH2 domain enzyme
T2 sequence (P29597 589-875 limits assumed): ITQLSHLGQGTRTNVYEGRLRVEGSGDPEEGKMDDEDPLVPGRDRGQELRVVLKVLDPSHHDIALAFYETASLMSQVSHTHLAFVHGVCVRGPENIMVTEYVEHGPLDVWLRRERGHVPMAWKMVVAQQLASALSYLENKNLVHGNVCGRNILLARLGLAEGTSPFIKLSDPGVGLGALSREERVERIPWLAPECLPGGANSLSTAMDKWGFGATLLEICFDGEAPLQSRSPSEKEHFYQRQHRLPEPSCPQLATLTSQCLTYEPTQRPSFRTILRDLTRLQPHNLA
As to the kind of experiment: Binding activity test for TYK2 JH2 domain (Tb-antibody/tracer FRET). The note with it: for JAK1/TYK2 selectivity: ratio of JAK1 JH2 to TYK2 JH2 binding IC50; for pIC50: read-out: TYK2 JH2 Binding IC50.

In series [4] the test system is Ba/F3-FL-TYK2-P760L cells. In words: Anti-proliferative assay in Ba/F3-FL-TYK2-P760L cells (Cell-Titer Glo). The series is classed as cell-based.
Method: These engineered Ba/F3-FL-TYK2-P760L cells were used to monitor JAK inhibitory activities of the compounds in the cellular. […] Cells were seeded at 2000/well of white flat bottom 96-well plates. The well containing medium only was used as background control. […] The test compounds were dissolved in DMSO to a stock concentration of 20 mM. […] The final DMSO concentration was 0.1%. […] The viability was measured by cellular ATP determination using the Cell-Titer Glo luciferase reagent (Promega). The Luminescence value was recorded by a multi-label reader Envision (PerkinElmer). Inhibition Rate was calculated relative to vehicle (DMSO) treated control wells using following formula:
wherein • RLU_compound=the relative light unit of cells treated with test compounds • RLU_blank=the relative light unit of medium with DMSO only • RLU_control=the relative light unit of cells treated with DMSO only
The subject of series [5] is pSTAT1. In words: Phosphorylation inhibition of STAT in human whole blood (IFN-alpha stimulated, flow cytometry). It is filed as cell-based. The note with it: T-cell, CD3+ T cells, read-out: pSTAT1 inhibition in hWB (IC50). The procedure:
Phosphorylation Inhibition of STAT in Human Whole Blood Testing: The inhibitory potential of test articles in human whole blood assay was evaluated by the method of flow cytometry. IFN-alpha will activate JAK1 and TYK2 kinase in T cells by binding to IFN receptors, and then lead to phosphorylation of STAT1 and STAT2. The phosphorylated STAT1 enter nuclear and promote transcription and expression of IFN-gamma. To evaluate the efficacy of TYK2i in T cells, freshly collected human whole blood will be stimulated with certain unit of human IFN-alpha (Universal Type I IFN (1MU), R&D, 11200-2) for 20 mins in incubator. After stimulation, fix cells with PhosflowTM Fix Buffer I (BD, 557870), and then collect fixed cells by centrifugation (500 g, 8 min). Wash cells once with pre-cooled PBS, and then permeabilize cells with cold Perm Buffer III buffer (BD, 558050) for 45 mins on ice. Collect cells by centrifugation (600 g, 8 min) and washed twice with cold PBS. Stain cells with anti-human CD3(FITC Mouse Anti-Human CD3, BD, 555332) and anti-pSTAT1_Y701 (Alexa Fluor 647 Mouse Anti-Stat1 ([…]), BD, 612597) antibodies. Detect pSTAT1 by flow cytometry (CytoFlex S) and analyze data with FlowJo and GraphPad Prism 8 software. IC50 values of test articles were determined using 4-parameter logistic equation.
(A flow cytometer gives signals particle by particle.)

Series [6] is described as follows: Kinetic solubility. The series is classed as physicochemical. The note with it: aqueous buffer, 100 mM pH 7.4 phosphate buffer, 1% DMSO, room temperature, read-out: Kinetics Solubility_PBS7.4. The procedure: Aliquots of 8 μL of reference and test compound stock solutions (10 mM/5 mM) are added into 792 μL of 100 mM pH 7.4 phosphate buffer. The final DMSO concentration is 1%. Sample tubes are shaken for 2 hours at 1000 rpm at room temperature. Samples are centrifuged at 12000 rpm for 10 min to precipitate un-dissolved particles. And transfer the supernatants to a new tube or plate. Add 5 μL of samples (no diluted, 10 times diluted and 100 times diluted) and standard curve samples to 95 μL of ACN containing IS for LC-MS/MS analysis.

In series [7] the test system is TYK2 pathway. In words: IFN-γ release in NK92 cells stimulated by IL-12 (ELISA). The series is classed as cell-based. The note with it: Homo sapiens, IL-12 2.5 ng/mL.
From the text: IFN-γ Release in NK92 Cells Stimulated by IL-12
Purpose: To evaluate the inhibition activity of TYK2 inhibitors in NK92 cells on TYK2 pathway through ELISA method.
The mark [8] stands for this setting: human liver microsomes 0.5 mg/mL, 1 μM.

pIC50: −log10 of the molar value. Values after ≈ are worked out from the molar mass of the structure shown.

As to `[2H]C([2H])([2H])NC(=O)c1cnc(NC(=O)C2CC2)cc1Nc1ncn2ncc(C(C)C(F)(F)F)c2c1OC` (single isomer, unassigned) [Example 5A, (R*)-6-(Cyclopropanecarboxamido)-4((4-methoxy-3-(1,1,1-trifluoropropan-2-yl)pyrazolo[1,5-c]pyrimidin-5-yl)amino)-N-(methyl-d3)nicotinamide], in series [1], the microsomal CLint at 1 µM was 57.5 µL/min/mg and the half-life at 1 µM amounted to 24.1 min. Also, the pIC50 in series [2] is below 6.53. In series [3], the JAK1/TYK2 selectivity is listed as above 197.55 and the pIC50 is 8.82. This compound gave a pIC50 in series [4] below 5.30.

In the case of `[2H]C([2H])([2H])NC(=O)c1cnc(NC(=O)C2CC2)cc1Nc1ncn2ncc(C(C)C(F)(F)F)c2c1OC` (single isomer, unassigned) [Example 5B, (S*)-6-(Cyclopropanecarboxamido)-4-((4-methoxy-3-(1,1,1-trifluoropropan-2-yl)pyrazolo[1,5-c]pyrimidin-5-yl)amino)-N-(methyl-d3)nicotinamide], the “Human LM Clint” value in series [1] (setting [8]) was 47.61 µL/min/mg. The “Human LM T½” value in series [1] (setting [8]) is listed as 29.11 min. The pIC50 in series [2] is 6.85; in series [3], 9.71; in series [4], 7.21. The JAK1/TYK2 selectivity in series [3] amounted to 716.05.

In the case of `[2H]C([2H])([2H])NC(=O)c1cnc(NC(=O)C2CC2)cc1Nc1ncc2cnn(C(C)C(F)(F)F)c2c1OC` (stereo not shown) [Example 3, 6-(Cyclopropanecarboxamido)-4-((7-methoxy-1-(1,1,1-trifluoropropan-2-yl)-1H-pyrazolo[4,3-c]pyridin-6-yl)amino)-N-(methyl-d3)nicotinamide], the microsomal CLint at 1 µM in series [1] was 5.8 µL/min/mg. The half-life at 1 µM in series [1] was found to be 239 min. The pIC50 is 6.92 in series [2], 9.17 in series [3] and 6.78 in series [4]. Besides, the JAK1/TYK2 selectivity in series [3] is 177.55.

Take `[2H]C([2H])([2H])NC(=O)c1cnc(NC(=O)C2CC2)cc1Nc1ncn2ncc(C(C)C(F)(F)F)c2c1OC` (stereo not shown) [Example 5, 6-(Cyclopropanecarboxamido)-4-((4-methoxy-3-(1,1,1-trifluoropropan-2-yl)pyrazolo[1,5-c]pyrimidin-5-yl)amino)-N-(methyl-d3)nicotinamide]: the “Human LM Clint” value in series [1] (setting [8]) was found to be 50.06 µL/min/mg. Further, in series [1], the half-life at 1 µM came to 27.7 min. Also, the pIC50 in series [2] was 6.80; in series [3] it was 9.57; in series [4] it was 7.28. For the same compound, in series [3], the JAK1/TYK2 selectivity is reported as 590.59.

On to `[2H]C([2H])([2H])NC(=O)c1cnc(NC(=O)[C@@H]2C[C@@H]2F)cc1Nc1ncc2cnn(CC(F)(F)F)c2c1OC` [Example 9, 6-((1S,2S)-2-fluorocyclopropane-1-carboxamido)-4-((7-methoxy-1-(2,2,2-trifluoroethyl)-1H-pyrazolo[4,3-c]pyridin-6-yl)amino)-N-(methyl-d3)nicotinamide], for which, in series [1], the microsomal CLint at 1 µM came to 5.42 µL/min/mg and the half-life at 1 µM was 256 min. Moreover, in series [2], the pIC50 was 7.45. The negative logarithm of the IC50 (pIC50) in series [5] was 6.56. The solubility kinetic at 2 h in series [6] worked out at 38.2 µM (≈ 18.5 µg/mL). Moreover, in series [3], the JAK1/TYK2 selectivity is recorded as 166.08 and the pIC50 is 9.67.

Consider `[2H]C([2H])([2H])NC(=O)c1cnc(NC(=O)C2CC2)cc1Nc1ccc2ccn(CC(C)(F)F)c2c1OC` [Example 17, 6-(Cyclopropanecarboxamido)-4-((1-(2,2-difluoropropyl)-7-methoxy-1H-indol-6-yl)amino)-N-(methyl-d3)nicotinamide], for which the pIC50 in series [2] is 7.38; in series [7], 7.66; in series [3], 9.47. Also, the solubility kinetic at 2 h in series [6] is 11.1 µM (≈ 5.12 µg/mL). Besides, the JAK1/TYK2 selectivity in series [3] stood at 121.60.

Regarding `CNC(=O)c1cnc(NC(=O)C2CC2)cc1Nc1ncn2ncc(C#N)c2c1OC` [Example 20, 4-((3-Cyano-4-methoxypyrazolo[1,5-c]pyrimidin-5-yl)amino)-6-(cyclopropanecarboxamido)-N-methylnicotinamide], in series [1], the microsomal CLint at 1 µM was determined as 39.2 µL/min/mg. Moreover, in series [1], the half-life at 1 µM stood at 35.4 min. The pIC50 in series [2] is 7.71; in series [5], 6.78; in series [3] it was 9.52. For the same compound, the JAK1/TYK2 selectivity in series [3] is recorded as 63.62.

Turning to `[2H]C([2H])([2H])NC(=O)c1cnc(NC(=O)C2CC2)cc1Nc1ccn2ncc(Br)c2c1OC` [Example 29, 4-((3-Bromo-4-methoxypyrazolo[1,5-a]pyridin-5-yl)amino)-6-(cyclopropanecarboxamido)-N-(methyl-d3)nicotinamide], the pIC50 in series [2] is 8.10; in series [7] it was 7.49; in series [3], 9.73. The JAK1/TYK2 selectivity in series [3] is given as 42.0.

A word on the pIC50: it is the negative decadic logarithm of the IC50, by convention in mol/L.

For the origin of these results see patent US20260284066A1, “TYK2 INHIBITORS AND COMPOSITIONS AND METHODS THEREOF” (LYNK PHARMACEUTICALS CO. LTD., priority 2023, published 2026).
